From US6617361B2, “Behavior chemotherapy” (Be Able, LLC, priority 1999, dated 2003)
Structures can show the parent of a compound that is named as a salt.

Experiments:
[1] = test system: Patient one; test: Protocol and results with patient one (cigarette smoking); conditions: January 1998; Ionamin 15 mg + Prozac 10 mg MWF (+ Estratest, occasional Tranxene)
Text: In addition, they were started on the moderate dose of the patch.

[2] = test system: Patient six; test: Protocol and results with patient six, Example 12 (thalamic pain syndrome, ethanol use); conditions: for body weight change: approximately five weeks into therapy, combination Adipex-P + fenfluramine + Celexa + Nutrimed; for energy level / pain as described by patient: combination Adipex-P 37.5 one-half b.i.d. + fenfluramine 10 mg + Celexa 10 mg + Nutrimed three times daily (+ atenolol 25 mg); for alcohol withdrawal phenomena: combination Adipex-P 37.5 one-half b.i.d. + fenfluramine 10 mg + Celexa 10 mg + Nutrimed three times daily + Librium 30 mg (three days) + atenolol 25 mg; for outcome of earlier trials for thalamic pain syndrome: before the protocol
Experimental: Person with sudden onset of numbness right side of body in Guyana 1973. […] Diagnosis was thalamic pain syndrome.
Other medical problems: borderline hypertension, obesity secondary to ETOH, hemorrhoids, and remote short-lived cigarette smoking.
At the time therapy started the patient was taking either hydrocodone/APAPE 7.5/500 as needed or Percocet. […] Therapy was started with Adipex-P 37.5 one-half p.o. bid., fenfluramine 10 mg p.o. q.a.m., Celexa 10 mg p.o. q.a.m., Nutrimed three times daily plus dinner for nutritional support (Nutrimed is a high protein, low carbohydrate semi-starvation fast), Librium 30 mg q.d. because of the discontinuation of alcohol, atenolol 25 mg q.a.m. Treatment started July 1999.
By mid-August, approximately five weeks into therapy, the patient was still on Nutrimed and Adipex but the fenfluramine was diminished to one-quarter of a pill or 5 mg. The atenolol was discontinued and the patient was encouraged to exercise.

[3] = test system: Patient six; test: Protocol and results with patient six, Example 10 (fibromyalgia, obesity); assay type: in vivo, human; conditions: for weight lost on therapy to date: Ionamin + fenfluramine (until 1996) + Zoloft from December 1995, Aricept from August 1998; for body weight: July 1999; for overall condition: over three years from December 1995, combination Ionamin 30 mg + fenfluramine 20 mg + Zoloft 25 mg, fenfluramine discontinued 1996
Text: This longstanding patient was first seen in 1988 for fibromyalgia. They are also bothered by chronic low back pain, mitral valve prolapse, sleep disturbance, a family history of coronary disease, and obesity. They are 5′8″ tall, 205½ lb. […] Their problem list contained the additional diagnoses of GERD, carpal tunnel syndrome, suspected mitral valve prolapse, and acne rosacea.
Their medication list included Synthroid, Estratest, Klonopin, Prilosec, Limbitrol, Provera, Premarin and Zostrix cream. […] They frequented health food stores, as well as chiropractors for relief.
Although greatly fearful of potential long-term problems, the patient finally agreed to the institution of a change in their medications and started therapy which was a major change in their medicines December 1995. […] At that time the patient's weight was in the mid 180s. Their other medications were continued.
This was an independent patient-initiated decision.

[4] = test system: Patient three; test: Protocol and results with patient three (chronic fatigue); conditions: for side effect noted by patient: combination reduced to Adipex-P 37.5 one-half, Celexa one-quarter, Aricept one-quarter, fenfluramine one-quarter pill q.a.m.; for patient-reported status: within two days, combination Adipex-P 37.5 mg one-half b.i.d. + Celexa 10 mg q.d. + fenfluramine 10 mg q.d. + Aricept one-half q.d.
Text: Longstanding patient in my practice who […] developed a viral illness followed by chronic fatigue. This problem persisted, numerous evaluations and consultations were obtained, in excess of 20 physicians were consulted, and the patient was followed for nine months in a major medical center with the diagnosis of chronic Lyme disease. Prior to this their symptoms included a compendium of mild lifelong autonomic dysfunction including chronic bladder and urethral problems which necessitated urological surgery in the distant past. They had not retired from work but had taken long leaves of absence and found it difficult to keep up their normal work schedule as a social worker, something they had done for many years. In the past for their autonomic dysfunction they had been placed on Depakote, Wellbutrin, and amitriptyline and they were on this when they became ill.
Their other medical problems included mitral valve prolapse with click and no murmur but no symptoms, a history of endometriosis, occasional kidney stones, and an ovarian cyst.
Therapy was begun on May 26, 1999. On Jun. […] They were still on 12.5 mg of Elavil or one-half pill and some minocin for acne, Wellbutrin from their psychiatrist, and Zithromax, an antibiotic started by other physicians for the treatment of Lyme disease. This is something that I advised them to discontinue, but they continued because of the concerns of the diagnosis.

[5] = test system: Patient four; test: Protocol and results with patient four (morbid obesity, cardiomyopathy); assay type: in vivo, human; conditions: for cardiac index remeasured / body weight the next month: combination Adipex-P 37.5 one-half + Zoloft 25 mg + Aricept 1.25 mg + fenfluramine 5 mg (+ atenolol 12.5 mg); for body weight the next month: from 235 lb June 1999
Experimental: This person has been in the practice for several years. Their medical problems surround a cardiomyopathy with a low cardiac output state and heart failure. They also have a history of hypertension, hypothyroidism on therapy, and morbid obesity.
Medication alterations continued over the next several months with increasing Ionamin to 30 mg. Hytrin was added at 2 mg because of prostatic symptoms and in November Pondimin was added.
Adipex-P 37.5 one-half was added to their medications. […]

[6] = test system: Patient five; test: Protocol and results with patient five (severe obesity); assay type: in vivo, human; conditions: for body weight: December 1997, combination Ionamin 30 mg + fenfluramine 20 mg + Zoloft 25 mg q.d. since August 1995, start in excess of 350 lb; for body weight reported by phone: combination Adipex-P 37.5 mg one-half b.i.d. + Celexa 20 mg one-half MWF + Adalat 30 + Aricept + Nutrimed three times daily, from 264¼ lb
Text: This person has been a patient in this practice for many years. Their medical problems are extremely long-lived and include chronic depression, severe obesity, hypertension, stasis dermatitis, and venous insufficiency of the lower extremities, and seborrhea.
In addition they were taking Lasix, Zaroxolyn and potassium for the control of their severe edema and leg pain. They were also using the CPAP machine.
At their insistence Meridia and Adalat were attempted. […] To augment the weight loss the patient was started on Nutrimed three times daily plus a regular dinner.

[7] = test system: Patient two; test: Protocol and results with patient two (leg pain, absence of energy); assay type: in vivo, human; conditions: for body weight: August 1999, from 143 lb November 1998, Celexa 10 mg + Adipex-P 37.5 one-half (+ atenolol 25 mg), later with Aricept 1.25 mg three times weekly; for weight reduction / leg aches: Celexa + Adipex-P + Aricept (atenolol at first); for weight reduction: November 1998 to August 1999; for leg aches: by August 1999
Experimental: First evaluated this 5′4″, ectomorphic, single person who was […] at the time.
On Nov. […] They were started on Celexa 10 mg, Adipex-P 37.5 one-half tablet, and atenolol 25 mg all in the morning.
They will keep in touch with me as they will take each instruction for four doses and then go to the next.

[8] = current medication includes Ionamin 15 mg q.a.m. and Aricept one-quarter pill MWF
[9] = July 1997, combination Ionamin 30 mg + Zoloft 25 + Pondimin
[10] = November, Ionamin (15 then 30 mg) + Zoloft 25 since April 1996, before Pondimin, not decreasing, averaging 237 lb before

`CC(C)(N)Cc1ccccc1` [Adipex-P, phentermine] was tested, and the body weight [1] was 119 lb, the smoking status [1] was “not smoking” and the body weight change [2] was “marked weight loss”. For the same molecule, the energy level [2] was “marked improvement in energy level”, the “pain as described by patient” value [2] was “markedly diminished” and the alcohol withdrawal phenomena [2] was “no withdrawal phenomena”. The “weight lost on therapy to date” value [3] was “approximately 25 lb”, the body weight [3, 8] was 161 lb and the “chronic fatigue remaining, of its original” value [3, 8] was ~20%. For the same molecule, the overall condition [3] was “greatly improved”, the “side effect noted by patient” value [4] was “some difficulty sleeping” and the patient-reported status [4] was “life had been transformed back towards its normal status”. The “improvement (weight, fatigue)” value ([5]; Adipex-P 37.5 one-half + Celexa 10 mg twice weekly + Aricept one-quarter pill MWF, in the absence of fenfluramine) was “essentially no improvement”, the body weight [5, 9] was 217 lb and the “cardiac output by echocardiography” value [5, 9] was “improved”. For the same molecule, the body weight [5, 10] was 230 lb, the cardiac index remeasured [5] was “even more improved than previously” and the “body weight the next month” value [5] was 218. The body weight [6] was 245 lb, the body weight reported by phone [6] was ~240 lb and the body weight [7] was 127 lb. For the same molecule, the weight reduction [7] was 12.5% and the leg aches [7] was “resolution of their leg aches”.
With `COc1cc2c(cc1OC)C(=O)C(CC1CCN(Cc3ccccc3)CC1)C2` (stereo not shown) [Aricept, donepezil] the “patient-reported status after addition” value ([3]; Aricept 2.5 mg Monday, Wednesday, Friday added August 1998 to ongoing therapy) was “felt much better”, the “weight lost on therapy to date” value [3] was “approximately 25 lb” and the body weight [3, 8] was 161 lb. The weight reduction [7] was 12.5% and the leg aches [7] was “resolution of their leg aches”.
In the case of `CN(C)CCCC1(c2ccc(F)cc2)OCc2cc(C#N)ccc21` (stereo not shown) [Celexa, citalopram], the body weight reported by phone [6] is reported as ~240 lb, the body weight [7] is reported as 127 lb and the weight reduction [7] is reported as 12.5%.
In the case of `O=C1NC(=O)C(c2ccccc2)(c2ccccc2)N1` [Dilantin], the “outcome of earlier trials for thalamic pain syndrome” value (from here on “outcome of earlier trials”) [2] is reported as “no help”.
`CN(C)CCC=C1c2ccccc2CCc2ccccc21` [Elavil] was tested, and the “outcome of earlier trials” value [2] was “no help”.
With `CNC1=Nc2ccc(Cl)cc2C(c2ccccc2)=[N+]([O-])C1` [Librium] the side effect ([2]; 30 mg q.d., discontinued by day three) was “mild sleepiness” and the alcohol withdrawal phenomena [2] was “no withdrawal phenomena”.
With `NCC1(CC(=O)O)CCCCC1` [Neurontin] the “outcome of earlier trials” value [2] was “no help”.
In the case of `CNCCC(Oc1ccc(C(F)(F)F)cc1)c1ccccc1` (stereo not shown) [Prozac, fluoxetine HCl], the body weight [1] is reported as 119 lb and the smoking status [1] is reported as “not smoking”.
With `NC(=O)N1c2ccccc2C=Cc2ccccc21` [Tegretol] the “outcome of earlier trials” value [2] was “no help”.
In the case of `CN[C@H]1CC[C@@H](c2ccc(Cl)c(Cl)c2)c2ccccc21` [Zoloft, sertraline HCl], the “weight lost on therapy to date” value [3] is reported as “approximately 25 lb”, the overall condition [3] is reported as “greatly improved” and the “cardiac output by echocardiography” value [5, 9] is reported as “improved”. It also gave a body weight [5, 10] of 230 lb and a body weight [6] of 245 lb.
For `CCNC(C)Cc1cccc(C(F)(F)F)c1` (stereo not shown) [fenfluramine], the body weight change [2] was “marked weight loss”, the energy level [2] was “marked improvement in energy level” and the “pain as described by patient” value [2] was “markedly diminished”. For the same molecule, the alcohol withdrawal phenomena [2] was “no withdrawal phenomena”, the “weight lost on therapy to date” value [3] was “approximately 25 lb” and the overall condition [3] was “greatly improved”. For the same molecule, the “side effect noted by patient” value [4] was “some difficulty sleeping”, the patient-reported status [4] was “life had been transformed back towards its normal status” and the body weight [5, 9] was 217 lb. For the same molecule, the “cardiac output by echocardiography” value [5, 9] was “improved”, the cardiac index remeasured [5] was “even more improved than previously” and the “body weight the next month” value [5] was 218. It also gave a body weight [6] of 245 lb.
In the case of “hydrocodone/APAPE [hydrocodone/APAPE 7.5/500]”, the effect on pain ([2]; taken as needed at the time therapy started) is reported as “not effective”.
